Data taken from US7507816B2, “Pharmaceutical preparations comprising substituted beta-aminoalcohols” (Gruenenthal GmbH, priority 2001, dated 2009).

Target: T1, NA transporter (Rattus norvegicus, UniProt Q9WTR4)
T1 construct: synaptosomes were freshly isolated from rat brain regions; from tissue; host or cells: rat hypothalamus synaptosomes (P2 fraction)
Test: Noradrenaline reuptake inhibition (NA uptake inhibition) in rat brain synaptosomes
Type: biochemical
Conditions: test concentration of 10^−5 M; synaptosomes (P2 fraction) from the hypothalamus of male rat brains
Procedure: Investigations Relating to Noradrenaline Reuptake Inhibition (NA Uptake Inhibition)
The compounds according to the invention are NA uptake inhibitors. In order to be able to carry out these in vitro studies, synaptosomes were freshly isolated from rat brain regions. A so-called “P2” fraction was used, which was prepared according to the instructions given by Gray and Whittaker (E. G. Gray and V. P. Whittaker (1962) J. Anat. 76, 79-88). For NA uptake, these vesicular particles were isolated from the hypothalamus of male rat brains.
The following characteristics were determined for the NA transporter: NA uptake: Km=0.32±0.11 μM (In each case N=4, i.e. means±SEM from 4 independent series of tests, which were performed as parallel tests in triplicate).
A detailed description of the method may be found in the literature (M. Ch. Frink, H.-H. Hennies, W. Englberger, M. Haurand and B. Wilffert (1996) Arzneim.-Forsch./Drug Res. 46 (III), 11, 1029-1036). The NA uptake inhibition of selected compounds was determined. The values were determined at a test concentration of 10^−5 M.

T1 sequence (Q9WTR4 1-597): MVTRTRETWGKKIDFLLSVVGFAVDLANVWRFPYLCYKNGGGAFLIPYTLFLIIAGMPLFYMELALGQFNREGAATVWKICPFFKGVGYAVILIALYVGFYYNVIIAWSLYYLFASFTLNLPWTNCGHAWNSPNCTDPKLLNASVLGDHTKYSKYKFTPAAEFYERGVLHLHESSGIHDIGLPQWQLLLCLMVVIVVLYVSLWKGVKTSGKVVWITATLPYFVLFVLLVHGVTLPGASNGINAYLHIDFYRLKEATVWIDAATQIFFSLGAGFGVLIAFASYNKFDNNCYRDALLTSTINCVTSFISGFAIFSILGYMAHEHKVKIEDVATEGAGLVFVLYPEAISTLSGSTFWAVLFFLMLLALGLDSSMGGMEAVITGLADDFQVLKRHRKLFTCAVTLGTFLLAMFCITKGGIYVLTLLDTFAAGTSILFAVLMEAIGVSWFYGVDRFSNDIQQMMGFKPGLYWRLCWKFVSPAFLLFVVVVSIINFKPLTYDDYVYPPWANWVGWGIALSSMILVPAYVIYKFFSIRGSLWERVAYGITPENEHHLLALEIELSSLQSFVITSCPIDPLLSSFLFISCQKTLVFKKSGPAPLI

SMILES | inhibition at 10 µM [%] | NA Uptake (% inhibition) [%]
OC1(c2cccc(Cl)c2Cl)CCCC1CN1CCCC1 (stereo not shown) [1-(2,3-Dichloro-phenyl)-2-pyrrolidin-1-ylmethyl-cyclopentanol] | 53 | 
Cc1cccc(C2(O)CCCC2CN2CCCC2)c1 (stereo not shown) [2-Pyrrolidin-1-ylmethyl-1-m-tolyl-cyclopentanol] | 52 | 
OC1(CCCc2ccccc2)CCCCCC1CN1CCCC1 (stereo not shown) [1-(3-Phenyl-propyl)-2-pyrrolidin-1-ylmethyl-cycloheptanol] | 63 | 
OC1(CCCc2ccccc2)CCCC1CN1CCCCCC1 (stereo not shown) [2-Azepan-1-ylmethyl-1-(3-phenyl-propyl)-cyclopentanol] | 59 | 
OC1(CCCc2ccccc2)CCCC1CN1CCCC1 (stereo not shown) [1-(3-Phenyl-propyl)-2-pyrrolidin-1-ylmethyl-cyclopentanol] | 65 | 
COc1ccc(C2(O)CCCCCC2CN2CCCC2)cc1 (stereo not shown) [1-(4-Methoxy-phenyl)-2-pyrrolidin-1-ylmethyl-cycloheptanol] | 69 | 
Cc1cc(C2(O)CCCC2CN2CCCC2)ccc1F (stereo not shown) [1-(4-Fluoro-3-methyl-phenyl)-2-pyrrolidin-1-ylmethyl-cyclopentanol] | 59 | 
Cc1cc(C2(O)CCCC2CN2CCCCCC2)ccc1F (stereo not shown) [2-Azepan-1-ylmethyl-1-(4-fluoro-3-methyl-phenyl)-cyclopentanol] | 73 | 
COc1ccc(C2(O)CCCC2CN2CCCCCC2)cc1 (stereo not shown) [2-Azepan-1-ylmethyl-1-(4-methoxy-phenyl)-cyclopentanol] | 58 | 
Cc1ccc(C2(O)CCCCCC2CN2CCCC2)cc1 (stereo not shown) [2-Pyrrolidin-1-ylmethyl-1-p-tolyl-cycloheptanol] | 76 | 
OC1(CCc2ccccc2)CCCCCC1CN1CCCCCC1 (stereo not shown) [2-Azepan-1-ylmethyl-1-phenethyl-cycloheptanol] | 87 | 
OC1(c2ccc(F)cc2)CCCCC1CN1CCCCCC1 (stereo not shown) [2-Azepan-1-ylmethyl-1-(4-fluoro-phenyl)-cyclohexanol] | 52 | 
Cc1ccc(C2(O)CCCC2CN2CCCCCC2)cc1 (stereo not shown) [2-Azepan-1-ylmethyl-1-p-tolyl-cyclopentanol] | 70 | 
Cc1cccc(C2(O)CCCCCC2CN2CCCC2)c1 (stereo not shown) [2-Pyrrolidin-1-ylmethyl-1-m-tolyl-cycloheptanol] | 67 | 
Cc1ccc(C2(O)CCCC2CN2CCCC2)cc1 (stereo not shown) [2-Pyrrolidin-1-ylmethyl-1-p-tolyl-cyclopentanol] | 78 | 
OC1(c2ccccc2)CCCCCC1CN1CCCC1 (stereo not shown) [1-Phenyl-2-pyrrolidin-1-ylmethyl-cycloheptanol] | 56 | 
OC1(Cc2ccccc2)CCCCCC1CN1CCCCCC1 (stereo not shown) [2-Azepan-1-ylmethyl-1-benzyl-cycloheptanol] | 55 | 
OC1(c2ccccc2)CCCCCC1CN1CCCCCC1 (stereo not shown) [2-Azepan-1-ylmethyl-1-phenyl-cycloheptanol] | 52 | 
OC1(c2cccc(Cl)c2Cl)CCCCC1CN1CCCC1 (stereo not shown) [1-(2,3-Dichloro-phenyl)-2-pyrrolidin-1-ylmethyl-cyclohexanol] | 60 | 
Cc1ccc(C2(O)CCCCCC2CN2CCCCCC2)cc1 (stereo not shown) [2-Azepan-1-ylmethyl-1-p-tolyl-cycloheptanol] | 58 | 
OC1(c2ccc(Cl)cc2Cl)CCCCCC1CN1CCCC1 (stereo not shown) [1-(2,4-Dichloro-phenyl)-2-pyrrolidin-1-ylmethyl-cycloheptanol] | 55 | 

SMILES | inhibition at 10 µM [%] | NA Uptake (% inhibition) [%]
OC1(CCc2ccccc2)CCCC1CN1CCCC1 (stereo not shown) [1-Phenethyl-2-pyrrolidin-1-ylmethyl-cyclopentanol] | 59 | 
OC1(c2ccc(F)cc2)CCCCCC1CN1CCCC1 (stereo not shown) [1-(4-Fluoro-phenyl)-2-pyrrolidin-1-ylmethyl-cycloheptanol] | 57 | 
OC1(c2cccc(Cl)c2Cl)CCCCCC1CN1CCCC1 (stereo not shown) [1-(2,3-Dichloro-phenyl)-2-pyrrolidin-1-ylmethyl-cycloheptanol] | 63 | 
CCC(O)(C#Cc1ccccc1)C(C)CN1CCCC1 (stereo not shown) [3-Ethyl-4-methyl-1-phenyl-5-pyrrolidin-1-yl-pent-1-yn-3-ol] | 76 | 
Cc1ccc(C2(O)CCCCC2CN2CCCCCC2)cc1 (stereo not shown) [2-Azepan-1-ylmethyl-1-p-tolyl-cyclohexanol] | 64 | 
COc1ccc(C2(O)CCCCC2CN2CCCCCC2)cc1 (stereo not shown) [2-Azepan-1-ylmethyl-1-(4-methoxy-phenyl)-cyclohexanol] | 58 | 
OC1(CCCc2ccccc2)CCCCC1CN1CCCCCC1 (stereo not shown) [2-Azepan-1-ylmethyl-1-(3-phenyl-propyl)-cyclohexanol] | 77 | 
OC1(c2ccc(Cl)cc2)CCCC1CN1CCCC1 (stereo not shown) [1-(4-Chloro-phenyl)-2-pyrrolidin-1-ylmethyl-cyclopentanol] | 75 | 68
OC1(C#Cc2ccccc2)CCCC1CN1CCCC1 (stereo not shown) [1-Phenylethynyl-2-pyrrolidin-1-ylmethyl-cyclopentanol] |  | 92
OC1(CCc2ccccc2)CCCC1CN1CCCCCC1 (stereo not shown) [2-Azepan-1-ylmethyl-1-phenethyl-cyclopentanol] | 92 | 
OC1(C#Cc2ccccc2)CCCC1CN1CCCCCC1 (stereo not shown) [2-Azepan-1-ylmethyl-1-phenylethynyl-cyclopentanol] |  | 99
Cc1cc(C2(O)CCCCCC2CN2CCCCCC2)ccc1F (stereo not shown) [2-Azepan-1-ylmethyl-1-(4-fluoro-3-methyl-phenyl)-cycloheptanol] | 63 | 
OC1(CCc2ccccc2)CCCCCC1CN1CCCC1 (stereo not shown) [1-Phenethyl-2-pyrrolidin-1-ylmethyl-cycloheptanol] | 82 | 
COc1ccc(C2(O)CCCCCC2CN2CCCCCC2)cc1 (stereo not shown) [2-Azepan-1-ylmethyl-1-(4-methoxy-phenyl)-cycloheptanol] | 58 | 
Cc1cc(C2(O)CCCCC2CN2CCCCCC2)ccc1F (stereo not shown) [2-Azepan-1-ylmethyl-1-(4-fluoro-3-methyl-phenyl)-cyclohexanol] | 54 | 
Cc1ccc(C2(O)CCCCC2CN2CCCC2)cc1 (stereo not shown) [2-Pyrrolidin-1-ylmethyl-1-p-tolyl-cyclohexanol] | 59 | 
OC1(c2cccs2)CCCC1CN1CCCCCC1 (stereo not shown) [2-Azepan-1-ylmethyl-1-thiophen-2-yl-cyclopentanol] | 51 | 
Cc1cccc(C2(O)CCCC2CN2CCCCCC2)c1 (stereo not shown) [2-Azepan-1-ylmethyl-1-m-tolyl-cyclopentanol] | 59 | 
Cc1cc(C2(O)CCCCCC2CN2CCCC2)ccc1F (stereo not shown) [1-(4-Fluoro-3-methyl-phenyl)-2-pyrrolidin-1-ylmethyl-cycloheptanol] | 83 | 
OC1(c2ccc(Cl)cc2)CCCC1CN1CCCCCC1 (stereo not shown) [2-Azepan-1-ylmethyl-1-(4-chloro-phenyl)-cyclopentanol] | 80 | 
OC1(CCc2ccccc2)CCCCC1CN1CCCCCC1 (stereo not shown) [2-Azepan-1-ylmethyl-1-phenethyl-cyclohexanol] | 70 | 
